From paper PMC8632988, “Inhibition of SYK and cSrc kinases can protect bone and cartilage in preclinical models of osteoarthritis and rheumatoid arthritis” (Scientific Reports, 2021) come the findings set out here.

Common to all, as to test: Kinase selectivity profile assay
Common to all, as to type: biochemical
What all share (conditions): 500 nM; relative to DMSO; read-out: Residual enzymatic activity

The target in one assay is T1, MEK3 (Homo sapiens, UniProt P46734).
T1 construct: purchased Reaction Biology Corporation
On the procedure: (§1) The activity of MT-SYK-03 against cSrc kinase and selectivity profile towards other 341 kinases was determined at Reaction Biology Corporation (Malvern, PA, USA) using the standard kinase assay protocol. […]; unbound phosphate was removed by extensive washing of filters in phosphoric acid. Kinase activity data was expressed as the percent remaining kinase activity in test samples compared to vehicle (dimethyl sulfoxide) reactions based on the radioactivity of reaction products (see Table S2). Experiment was replicated twice.

The next assay concerns the target T2, PAK5 (Homo sapiens, UniProt Q9P286).
T2 construct: purchased Reaction Biology Corporation
On the procedure: as §1

For a further assay, the target named is T3, PLK1 (Homo sapiens, UniProt P53350).
T3 construct: purchased Reaction Biology Corporation
On the procedure: as §1

A further assay addresses T4, MEK1 (Homo sapiens, UniProt Q02750).
T4 construct: purchased Reaction Biology Corporation
On the procedure: as §1

The next assay has as its target T5, GRK6 (Homo sapiens, UniProt P43250).
T5 construct: purchased Reaction Biology Corporation
The procedure:
as §1

The next assay has as its target T6, FMS (Homo sapiens, UniProt P07333).
T6 construct: purchased Reaction Biology Corporation
The procedure: as §1

A further assay concerns the target T7, CAMK2a (Homo sapiens, UniProt Q9UQM7).
T7 construct: purchased Reaction Biology Corporation
On the procedure: as §1

Another assay addresses T8, CAMK4 (Homo sapiens, UniProt Q16566).
T8 construct: purchased Reaction Biology Corporation
The procedure:
as §1

For a further assay, the target named is T9, MAPKAPK5/PRAK (Homo sapiens, UniProt Q8IW41).
T9 construct: purchased Reaction Biology Corporation
The procedure:
as §1

T5 sequence (P43250 whole entry): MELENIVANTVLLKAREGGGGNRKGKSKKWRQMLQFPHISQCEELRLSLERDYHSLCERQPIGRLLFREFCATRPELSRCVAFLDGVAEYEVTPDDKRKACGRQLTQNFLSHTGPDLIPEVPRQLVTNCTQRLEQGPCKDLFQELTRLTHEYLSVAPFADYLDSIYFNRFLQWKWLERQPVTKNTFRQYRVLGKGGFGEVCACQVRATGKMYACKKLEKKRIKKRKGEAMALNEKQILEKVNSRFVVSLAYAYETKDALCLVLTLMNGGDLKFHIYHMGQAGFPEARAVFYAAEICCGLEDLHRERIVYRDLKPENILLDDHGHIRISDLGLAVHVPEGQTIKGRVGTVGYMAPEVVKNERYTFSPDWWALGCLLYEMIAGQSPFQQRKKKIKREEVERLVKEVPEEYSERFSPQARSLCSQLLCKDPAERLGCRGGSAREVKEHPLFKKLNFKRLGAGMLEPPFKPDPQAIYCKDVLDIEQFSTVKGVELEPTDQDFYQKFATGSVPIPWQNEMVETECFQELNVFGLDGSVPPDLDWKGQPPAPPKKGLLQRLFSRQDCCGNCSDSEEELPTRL
T1 sequence (P46734 whole entry): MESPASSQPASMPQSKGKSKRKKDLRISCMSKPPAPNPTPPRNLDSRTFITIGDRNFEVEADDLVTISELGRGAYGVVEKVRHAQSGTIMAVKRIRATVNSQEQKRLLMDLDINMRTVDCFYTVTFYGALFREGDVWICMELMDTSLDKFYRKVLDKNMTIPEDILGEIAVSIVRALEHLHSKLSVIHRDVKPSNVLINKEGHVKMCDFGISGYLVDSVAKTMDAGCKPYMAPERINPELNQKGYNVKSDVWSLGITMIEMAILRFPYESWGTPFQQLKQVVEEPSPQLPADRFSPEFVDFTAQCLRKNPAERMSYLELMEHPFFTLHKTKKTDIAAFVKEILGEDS
T8 sequence (Q16566 whole entry): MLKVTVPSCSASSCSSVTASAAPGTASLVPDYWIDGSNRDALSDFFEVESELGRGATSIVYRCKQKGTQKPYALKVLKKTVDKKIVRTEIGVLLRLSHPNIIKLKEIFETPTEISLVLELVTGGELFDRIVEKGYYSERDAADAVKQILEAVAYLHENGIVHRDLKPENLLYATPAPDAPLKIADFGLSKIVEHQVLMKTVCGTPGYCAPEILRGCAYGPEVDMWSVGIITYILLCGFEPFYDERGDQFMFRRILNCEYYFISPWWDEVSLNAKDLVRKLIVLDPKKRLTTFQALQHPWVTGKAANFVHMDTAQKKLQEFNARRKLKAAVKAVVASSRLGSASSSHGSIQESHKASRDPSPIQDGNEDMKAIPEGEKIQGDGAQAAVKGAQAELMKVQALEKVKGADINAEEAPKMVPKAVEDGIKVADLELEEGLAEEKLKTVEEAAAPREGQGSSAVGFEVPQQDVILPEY
T4 sequence (Q02750 whole entry): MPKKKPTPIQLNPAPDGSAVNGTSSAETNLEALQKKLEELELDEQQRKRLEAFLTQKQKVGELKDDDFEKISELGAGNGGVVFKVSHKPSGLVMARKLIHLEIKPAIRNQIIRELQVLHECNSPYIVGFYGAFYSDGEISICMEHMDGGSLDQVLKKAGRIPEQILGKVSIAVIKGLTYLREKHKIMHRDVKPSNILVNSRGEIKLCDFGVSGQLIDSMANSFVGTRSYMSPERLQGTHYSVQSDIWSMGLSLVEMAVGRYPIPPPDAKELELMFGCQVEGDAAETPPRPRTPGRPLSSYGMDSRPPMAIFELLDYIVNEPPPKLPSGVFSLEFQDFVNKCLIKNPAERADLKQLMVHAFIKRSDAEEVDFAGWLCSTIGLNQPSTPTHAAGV
T7 sequence (Q9UQM7 whole entry): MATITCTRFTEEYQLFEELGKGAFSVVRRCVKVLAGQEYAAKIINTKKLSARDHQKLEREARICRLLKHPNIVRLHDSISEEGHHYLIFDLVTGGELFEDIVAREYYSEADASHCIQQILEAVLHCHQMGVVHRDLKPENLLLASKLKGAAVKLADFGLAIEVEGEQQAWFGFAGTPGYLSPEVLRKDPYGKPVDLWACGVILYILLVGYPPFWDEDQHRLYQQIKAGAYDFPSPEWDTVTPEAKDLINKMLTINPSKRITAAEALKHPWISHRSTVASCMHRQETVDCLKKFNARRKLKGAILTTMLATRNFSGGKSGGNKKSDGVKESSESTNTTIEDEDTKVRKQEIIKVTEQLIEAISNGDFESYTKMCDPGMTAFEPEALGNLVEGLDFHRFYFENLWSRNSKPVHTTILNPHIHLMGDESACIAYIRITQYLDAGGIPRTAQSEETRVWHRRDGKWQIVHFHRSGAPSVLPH
T3 sequence (P53350 whole entry): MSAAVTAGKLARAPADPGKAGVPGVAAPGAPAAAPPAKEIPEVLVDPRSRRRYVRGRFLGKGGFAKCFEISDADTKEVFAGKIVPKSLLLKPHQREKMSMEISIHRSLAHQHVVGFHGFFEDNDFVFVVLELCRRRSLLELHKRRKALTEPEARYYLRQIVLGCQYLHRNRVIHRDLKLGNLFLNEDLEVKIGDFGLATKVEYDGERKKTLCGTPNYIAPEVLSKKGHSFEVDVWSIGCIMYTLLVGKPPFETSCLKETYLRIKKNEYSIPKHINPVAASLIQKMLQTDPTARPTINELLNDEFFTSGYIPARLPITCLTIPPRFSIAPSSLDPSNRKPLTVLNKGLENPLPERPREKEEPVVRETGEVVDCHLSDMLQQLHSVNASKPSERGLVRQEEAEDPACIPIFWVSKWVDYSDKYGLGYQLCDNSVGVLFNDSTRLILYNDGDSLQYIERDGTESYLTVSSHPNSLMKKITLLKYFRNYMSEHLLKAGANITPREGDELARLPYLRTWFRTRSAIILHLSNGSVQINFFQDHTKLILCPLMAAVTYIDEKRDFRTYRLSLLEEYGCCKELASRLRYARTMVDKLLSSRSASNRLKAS
T9 sequence (Q8IW41 whole entry): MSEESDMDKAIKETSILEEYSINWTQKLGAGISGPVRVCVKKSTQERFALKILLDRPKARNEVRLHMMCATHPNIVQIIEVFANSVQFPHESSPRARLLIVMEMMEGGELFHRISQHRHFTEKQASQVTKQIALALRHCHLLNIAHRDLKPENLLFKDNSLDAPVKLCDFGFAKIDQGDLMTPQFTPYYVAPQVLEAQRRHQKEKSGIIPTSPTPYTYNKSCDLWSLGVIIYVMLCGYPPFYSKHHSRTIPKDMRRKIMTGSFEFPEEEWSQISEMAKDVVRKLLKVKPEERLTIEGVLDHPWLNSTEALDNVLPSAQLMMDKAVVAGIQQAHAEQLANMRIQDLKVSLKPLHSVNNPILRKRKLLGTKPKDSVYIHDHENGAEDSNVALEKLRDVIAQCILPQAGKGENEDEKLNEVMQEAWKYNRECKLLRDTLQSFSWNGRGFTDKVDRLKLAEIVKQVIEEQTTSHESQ
T6 sequence (P07333 20-972): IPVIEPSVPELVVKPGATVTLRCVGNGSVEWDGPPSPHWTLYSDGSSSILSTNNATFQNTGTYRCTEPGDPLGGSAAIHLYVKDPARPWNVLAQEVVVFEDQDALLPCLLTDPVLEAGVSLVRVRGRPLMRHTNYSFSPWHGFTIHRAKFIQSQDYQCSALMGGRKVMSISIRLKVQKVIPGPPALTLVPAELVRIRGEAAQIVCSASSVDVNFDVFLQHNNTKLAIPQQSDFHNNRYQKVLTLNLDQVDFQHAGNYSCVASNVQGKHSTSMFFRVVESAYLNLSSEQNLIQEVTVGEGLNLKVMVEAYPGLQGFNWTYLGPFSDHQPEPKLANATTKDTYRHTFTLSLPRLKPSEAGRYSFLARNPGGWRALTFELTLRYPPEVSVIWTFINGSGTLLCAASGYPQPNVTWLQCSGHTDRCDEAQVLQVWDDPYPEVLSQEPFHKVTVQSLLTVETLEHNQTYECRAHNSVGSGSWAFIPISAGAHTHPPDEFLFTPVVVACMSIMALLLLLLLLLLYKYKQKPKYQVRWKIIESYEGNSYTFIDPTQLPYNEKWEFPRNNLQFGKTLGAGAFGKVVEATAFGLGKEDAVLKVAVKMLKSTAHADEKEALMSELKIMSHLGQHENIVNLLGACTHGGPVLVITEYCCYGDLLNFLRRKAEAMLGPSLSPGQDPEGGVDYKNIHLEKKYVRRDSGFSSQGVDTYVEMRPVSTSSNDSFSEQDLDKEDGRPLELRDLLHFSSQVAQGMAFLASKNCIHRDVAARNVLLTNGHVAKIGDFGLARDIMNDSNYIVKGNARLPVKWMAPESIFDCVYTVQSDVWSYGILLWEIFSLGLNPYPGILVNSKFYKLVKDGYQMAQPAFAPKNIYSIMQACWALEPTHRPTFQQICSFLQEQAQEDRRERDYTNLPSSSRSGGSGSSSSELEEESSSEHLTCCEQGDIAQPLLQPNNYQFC
T2 sequence (Q9P286 whole entry): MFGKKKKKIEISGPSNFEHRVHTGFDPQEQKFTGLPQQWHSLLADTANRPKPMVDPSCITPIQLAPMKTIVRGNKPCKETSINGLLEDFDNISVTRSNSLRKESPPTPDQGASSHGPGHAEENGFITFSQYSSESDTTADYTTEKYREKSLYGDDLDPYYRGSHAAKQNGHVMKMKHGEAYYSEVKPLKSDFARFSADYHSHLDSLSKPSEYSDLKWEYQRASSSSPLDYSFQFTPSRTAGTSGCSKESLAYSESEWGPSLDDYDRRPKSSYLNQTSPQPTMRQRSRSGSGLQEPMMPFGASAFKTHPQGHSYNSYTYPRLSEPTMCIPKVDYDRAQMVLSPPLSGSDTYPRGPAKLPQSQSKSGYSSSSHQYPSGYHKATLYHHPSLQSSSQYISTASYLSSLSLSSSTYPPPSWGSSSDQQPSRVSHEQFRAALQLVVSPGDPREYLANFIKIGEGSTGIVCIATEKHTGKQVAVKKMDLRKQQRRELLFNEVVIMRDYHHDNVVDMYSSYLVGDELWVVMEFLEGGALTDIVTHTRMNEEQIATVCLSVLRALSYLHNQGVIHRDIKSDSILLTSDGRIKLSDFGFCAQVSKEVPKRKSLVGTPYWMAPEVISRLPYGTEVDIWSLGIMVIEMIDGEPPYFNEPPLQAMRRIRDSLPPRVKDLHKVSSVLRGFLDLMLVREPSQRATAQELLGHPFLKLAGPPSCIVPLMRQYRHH

Turning to `COc1cc(Nc2ncc(F)c(Nc3ccc4c(n3)NC(=O)C(C)(C)O4)n2)cc(OC)c1OC` [R406, reference compound], the remaining activity at 0.5 µM amounted to 131% at MEK3; 49% on PAK5; 60.4% on PLK1; 87.2% at MEK1; 92.7% on GRK6; 17.2% on FMS. The remaining activity at 0.5 µM at CAMK2a stood at 94.4%; at CAMK4 it was 120%; at MAPKAPK5/PRAK, 99.4%.
